Measured values: patent US20200397795A1, “PROPHYLACTIC TREATMENT OF VENOUS THROMBOEMBOLISM” (JANSSEN PHARMACEUTICALS, INC., priority 2019, published 2020)

Tested on: venous thromboembolism (VTE) in patients hospitalized for acute medical illness
Assay: MAGELLAN (Study 1): efficacy of oral rivaroxaban 10 mg OD 35 days vs sc enoxaparin 40 mg OD 10 days then placebo
Format: in vivo
Method: The objective of Study 1 (MAGELLAN or MAGELLAN Study) was to compare efficacy and safety of venous thromboembolism (VTE) prophylaxis with oral rivaroxaban 10 mg once daily administered for 35±4 days (hereafter referred to as 35 days or Day 35) to subcutaneous enoxaparin 40 mg once daily (OD) administered for 10±4 days (hereafter referred to as 10 days or Day 10) in men and women aged 40 years or above, who have been hospitalized for a medical illness.
Diagnosis and main criteria for inclusion in Study 1 was men and women 40 years or above and at risk for VTE being hospitalized for acute medical illness conditions, including: heart failure (New York Heart Association [NYHA] class III or IV); active cancer (e.g., admitted for chemotherapy or for the treatment of a complication of active cancer); acute ischemic stroke; acute infectious and inflammatory diseases, including acute rheumatic diseases; and acute respiratory insufficiency. Also at least one additional risk factor for VTE, including: severe varicosis (varicosities); chronic venous insufficiency; history of cancer; history of deep vein thrombosis (DVT) or pulmonary embolism (PE); history of heart failure (NYHA class III or IV); thrombophilia (hereditary or acquired); recent major surgery (6-12 weeks); recent serious trauma (6-12 weeks); hormone replacement therapy; advanced age greater than or equal to 75 years; morbid obesity (body mass index (BMI) 35 kg/m^2 or higher); and acute infectious disease contributing to hospitalization.
The study was conducted in a prospective, randomized, double-blind, double dummy, active comparator-controlled, multicenter and multinational design. There were 8101 subjects were randomized at 556 study centers in 52 countries to one of the two treatment groups. Of the 8101 randomized subjects, 4050 were randomized to active rivaroxaban and 4051 were randomized to active enoxaparin.
Primary Endpoints: The primary efficacy variable was a composite of the number of events of: asymptomatic proximal DVT in lower extremity detected by mandatory bilateral lower extremity venous ultrasonography; symptomatic DVT in lower extremity, proximal or distal; symptomatic, non-fatal PE; and VTE-related death defined as either a well-documented fatal PE, or sudden death with no other plausible explanation. The two primary efficacy endpoints were (i) test of superiority at Day 35 (Days 29-41, inclusive) and (ii) test of non-inferiority at Day 10 (Days 6-15, inclusive).
Secondary Endpoints: The first major secondary efficacy endpoint was defined as a composite of the test of superiority at Day 35 with component of VTE-related death substituted by all-cause mortality, up to Day 35. The second major efficacy secondary efficacy endpoint was the test for superiority at Day 10 using the same composite endpoint as the Day 10 non-inferiority test.
For both primary efficacy endpoints, the relative risk ratio (rivaroxaban/enoxaparin) with respect to the incidences of the primary efficacy endpoint was estimated based on a stratified estimator using Mantel-Haenszel weights (based on sample sizes by geographic region). The corresponding asymptotic 2-sided 95% confidence interval based on the approximation to the normal distribution was determined. Sensitivity analyses were performed for the primary efficacy endpoints.
The primary efficacy variable was a composite of the number of events of (1) asymptomatic proximal DVT in lower extremity detected by mandatory bilateral lower extremity venous ultrasonography; (2) symptomatic DVT in lower extremity, proximal or distal; (3) symptomatic, nonfatal PE; and (4) VTE-related death. […]

[1] = Day 10 + 5, PP Day 10 plus major and clinically relevant bleeds
[2] = Day 10 + 5, per protocol Day 10 analysis set
[3] = Day 10 + 5 up to Day 35 + 6, mITT (Day 10 to Day 35) analysis set
[4] = Day 10 + 5 up to Day 35 + 6, mITT (Day 10 to Day 35) analysis set, listed as rivaroxaban
[5] = Day 35 + 6, mITT Day 35 analysis set
[6] = Day 35 + 6, mITT Day 35 analysis set, listed as rivaroxaban
[7] = Day 35 + 6, mITT Day 35 plus major and clinically relevant bleeds
[8] = Day 35, mITT Day 35 analysis set
[9] = rivaroxaban-placebo phase (Day 10 to Day 35), mITT (Day 10 to Day 35)

## O=C(NC[C@H]1CN(c2ccc(N3CCOCC3=O)cc2)C(=O)O1)c1ccc(Cl)s1 [Rivaroxaban, 5-chloro-N-({(5S)-2-oxo-3-[4-(3-oxo-4-morpholinyl)phenyl]-1,3,oxazolidin-5-yl}methyl)-2-thiophenecarboxamide]
Day 10
  Major vascular events (CV death, acute myocardial infarction, or acute ischemic stroke), incidence: 1.0%
  Symptomatic VTE excluding VTE-related death, incidence: 0.5%
  Symptomatic VTE including death, incidence: 0.7%
[1]
  Net clinical benefit component: asymptomatic lower proximal deep vein thrombosis: 71 (2.4%)
  Net clinical benefit component: clinically relevant non-major bleeding: 51 (1.7%)
  Net clinical benefit component: death (pulmonary embolism): 3 (0.1%)
  Net clinical benefit component: major bleeding: 9 (0.3%)
  Net clinical benefit component: symptomatic deep vein thrombosis in lower extremity: 7 (0.2%)
  Net clinical benefit component: symptomatic non-fatal pulmonary embolism: 6 (0.2%)
  Net clinical benefit component: venous thromboembolism related death: 3 (0.1%)
  Net clinical benefit, any event, incidence: 134 (4.5%)
Day 10 + 5, PP Day 10 plus major and clinically relevant bleeds, listed as rivaroxaban
  Net clinical benefit, any event, incidence: 4.5%
[2]
  Asymptomatic proximal deep vein thrombosis in lower extremity, incidence: 71 (2.4%)
  Death (pulmonary embolism cannot be excluded), incidence: 3 (0.1%)
  Primary efficacy composite, any event, incidence: 78 (2.7%)
  Symptomatic deep vein thrombosis in lower extremity, incidence: 7 (0.2%)
  Venous thromboembolism related death, incidence: 3 (0.1%)
Day 10 + 5, per protocol Day 10 analysis set, listed as rivaroxaban
  Primary efficacy composite, any event, incidence: 2.7%
[3]
  Asymptomatic proximal deep vein thrombosis in lower extremity, incidence: 81 (2.1%)
  Death (pulmonary embolism cannot be excluded), incidence: 8 (0.3%)
  Death (pulmonary embolism), incidence: 1 (<0.1%)
  Symptomatic deep vein thrombosis in lower extremity, incidence: 3 (0.1%)
  Symptomatic non-fatal pulmonary embolism, incidence: 1 (<0.1%)
  Venous thromboembolism related death, incidence: 9 (0.3%)
Day 10 + 5 up to Day 35 + 6, mITT (Day 10 to Day 35) analysis set, rivaroxaban-placebo phase
  Primary efficacy composite, any event, incidence: 72 (2.5%)
Day 10 + 5 up to Day 35 + 6, mITT (Day 10 to Day 35) analysis set, rivaroxaban-placebo phase, listed as rivaroxaban
  Primary efficacy composite, any event, incidence: 2.5%
[4]
  Asymptomatic proximal deep vein thrombosis in lower extremity, incidence: 2.1%
  Venous thromboembolism related death, incidence: 0.3%
Day 10, PP Day 10 analysis set
  Relative risk (rivaroxaban/enoxaparin), primary efficacy composite: 0.968
  Relative risk reduction, primary efficacy composite: 3.25%
Day 10 PP, active cancer
  Relative risk vs enoxaparin, subgroup: 2.500
Day 10 PP, age subgroup 65 to <75 years
  Relative risk vs enoxaparin, subgroup: 1.88
Day 10 PP, complete immobilization >6 days post randomization
  Relative risk vs enoxaparin, subgroup: 0.671
Day 10 PP, complete immobilization post randomization 4-6 days
  Relative risk vs enoxaparin, subgroup: 1.75
Day 35
  Major vascular events, incidence: 1.8%
  Symptomatic VTE excluding VTE-related death, incidence: 0.6%
  Symptomatic VTE including death, incidence: 1.0%
[5]
  Asymptomatic proximal deep vein thrombosis in lower extremity, incidence: 103 (3.5%)
  Death (pulmonary embolism cannot be excluded), incidence: 18 (0.6%)
  Death (pulmonary embolism), incidence: 1 (<0.1%)
  Primary efficacy composite, any event, incidence: 131 (4.4%)
  Symptomatic deep vein thrombosis in lower extremity, incidence: 13 (0.4%)
  Symptomatic non-fatal pulmonary embolism, incidence: 10 (0.3%)
  Venous thromboembolism related death, incidence: 19 (0.6%)
[6]
  Asymptomatic proximal deep vein thrombosis in lower extremity, incidence: 3.5%
  Primary efficacy composite, any event, incidence: 4.4%
  Venous thromboembolism related death, incidence: 0.6%
[7]
  Net clinical benefit component: asymptomatic lower proximal deep vein thrombosis: 104 (3.4%)
  Net clinical benefit component: clinically relevant non-major bleeding: 124 (4.1%)
  Net clinical benefit component: death (pulmonary embolism cannot be excluded): 18 (0.6%)
  Net clinical benefit component: death (pulmonary embolism): 1 (<0.1%)
  Net clinical benefit component: major bleeding: 43 (1.4%)
  Net clinical benefit component: symptomatic deep vein thrombosis in lower extremity: 13 (0.4%)
  Net clinical benefit component: symptomatic non-fatal pulmonary embolism: 10 (0.3%)
  Net clinical benefit component: venous thromboembolism related death: 19 (0.6%)
  Net clinical benefit, any event, incidence: 286 (9.4%)
Day 35 + 6, mITT Day 35 plus major and clinically relevant bleeds, listed as rivaroxaban
  Net clinical benefit, any event, incidence: 9.4%
[8]
  Relative risk (rivaroxaban/enoxaparin), primary efficacy composite: 0.771
  Relative risk reduction, primary efficacy composite: 22.89%
Day 35, mITT Day 35 expanded
  Composite endpoint including all-cause mortality, incidence: 8.6%
  Relative risk, composite endpoint including all-cause mortality: 0.931
Day 35 mITT, active cancer
  Relative risk vs enoxaparin, subgroup: 1.340
Day 35 mITT, acute infectious and inflammatory disease
  Relative risk vs enoxaparin, subgroup: 0.657
Day 35 mITT, age subgroup 75 years
  Relative risk vs enoxaparin, subgroup: 0.624
Day 35 mITT, subjects in Western Europe (including Australia, New Zealand, Israel)
  Relative risk vs enoxaparin, subgroup: 0.5
Day 90
  All-cause mortality, incidence: 6.7%
  Major vascular events, incidence: 2.8%
  Symptomatic VTE excluding VTE-related death, incidence: 0.7%
  Symptomatic VTE including death, incidence: 1.7%
[9]
  Relative risk reduction, primary efficacy composite: 35.14%
  Relative risk, primary efficacy composite: 0.649
